Data taken from paper PMC7667534, “Calixarbutin: A Novel Calixarene-based Potential Water-soluble Anti-tyrosinase Agent with High Anti-melanoma Activity” (Iranian Journal of Pharmaceutical Research : IJPR, 2020).

How the values were obtained:
[1] = target: Mushroom tyrosinase; experiment: DOPA-chrome assay with L-DOPA ([…]), mushroom tyrosinase […] U/mL, absorbance at […] nm; type: biochemical; conditions: read-out: Anti-tyrosinase activity (IC50)
[2] = target: Mushroom tyrosinase; experiment: DOPA-chrome assay with L-DOPA ([…]), mushroom tyrosinase […] U/mL, absorbance at […] nm; reference inhibitor measured by the authors; type: biochemical; conditions: read-out: Anti-tyrosinase activity (IC50)

IC50 [1]	IC50 [2]	Structure (SMILES)
26 ± 1 µM		OC[C@H]1O[C@@H](Oc2c3cc(O)cc2Cc2cc(O)cc(c2O[C@@H]2O[C@H](CO)[C@@H](O)[C@H](O)[C@H]2O)Cc2cc(O)cc(c2O[C@@H]2O[C@H](CO)[C@@H](O)[C@H](O)[C@H]2O)Cc2cc(O)cc(c2O[C@@H]2O[C@H](CO)[C@@H](O)[C@H](O)[C@H]2O)C3)[C@H](O)[C@@H](O)[C@@H]1O [compound 4]
	168 ± 7 µM	OC[C@H]1O[C@@H](Oc2ccc(O)cc2)[C@H](O)[C@@H](O)[C@@H]1O [Arbutin]
